This is an account of results in patent US20040072222A1, “Peptide analogues of myelin basic protein epitopes in the treatment of experimental autoimmune encephalomyelitis (eae) and multiple sclerosis (ms)” (priority 2003, published 2004).

The subject of test [1] is EAE in Lewis rats. As to the kind of experiment: Induction-inhibition and assessment of EAE (clinical score). Conditions: for inhibition of MBP72-85-induced EAE on co-injection: analogue 500 μg co-injected with MBP72-85 25 μg, FIG. 2/3; for induction of EAE: injected subcutaneously in Lewis rats; for peak clinical score, day following the initial injection / recovery from EAE: injected subcutaneously in Lewis rats (section B2); for inhibition of MBP72-85-induced EAE (clinical signs) on co-injection: co-injected with MBP72-85, Lewis rats. It counts as in vivo.

In test [2] the test system is human peripheral blood T cells. Put plainly: Activation and proliferation of human peripheral blood T cells. Conditions: for effect on human T cell activation and proliferation: agonist peptides, linear vs cyclic; for biological activity in human peripheral blood T cells relative to linear analogue: compared with linear MBP72-85 / Ala81MBP72-85; for reversal of agonist effect on human T cell activation and proliferation: co-culturing of the cells with antagonist peptide. The format is cell-based.

Test [3] deals with EAE in Lewis rats. Conditions: cited from earlier work.
The subject of test [4] is demyelination and inflammation in the spinal cord. As to the kind of experiment: Histopathological examination of spinal cord sections (Luxol fast blue / Nuclear Fast Red). Conditions: for spinal cord demyelination and inflammation on co-immunization with MBP72-85: day 15 after immunization. The format is in vivo, Lewis rats.

Entries after “also recorded” stand apart in the source; their conditions may differ. Like-named read-outs stand apart in the source and are kept apart here. Where no end group is shown, it is not given here.

Turning to “Val-His-Phe-Phe-Lys^91-Asn-Ile-Val-Thr-Ala^96-Arg-Thr-Pro^99 [cyclo-(91, 99) [Ala^96] MBP87-99]”, the “inhibition of MBP72-85-induced EAE on co-injection” value with EAE in Lewis rats [1] is on record as “low inhibitory activity”.

As for “Gln^1-Lys^2-Ser^3-Gln^4-Arg^5-Ser^6-Gln^7-Asp^8-Glu^9-Asn^10-Pro^11-Val^12-NH2 [c-MBP72-85]”, in test [2], the “effect on human T cell activation and proliferation” value is reported as “comparable effect”; the “biological activity in human peripheral blood T cells relative to linear analogue” value is recorded as “comparable”. In addition, in the test with EAE in Lewis rats [1], the “induction of EAE” value is “induce EAE”; the “peak clinical score, day following the initial injection” value worked out at 15 days; the “recovery from EAE” value is on record as “eventual complete recovery in all animals”. In the test on EAE in Lewis rats [1] (listed as 1), the “induction of EAE” value is “comparable with that of linear agonist”. Moreover, the “induction of EAE” value in the test on EAE in Lewis rats [3] (background, literature) was “comparable potency to MBP72-85”.

For the substance “Val-His-Phe-Phe-Arg^91-Asn-Ile-Val-Thr-Ala^96-Arg-Thr-Pro [[Arg^91,Ala^96]MBP87-99]”, in the test with EAE in Lewis rats [1], the “inhibition of MBP72-85-induced EAE on co-injection” value was “completely prevented” and the “inhibition of MBP72-85-induced EAE (clinical signs) on co-injection” value (“inhibition … (clinical signs) on co-injection” for short) is “completely prevented”.

For the substance “Gln^1-Lys^2-Ser^3-Gln^4-Arg^5-Ser^6-Gln^7-Ala^8-Glu^9-Asn^10-Pro^11-Val^12-NH2 [c-Ala^81MBP72-85]”, in test [2], the “reversal of agonist effect on human T cell activation and proliferation” value is reported as “completely reversed”; the “biological activity in human peripheral blood T cells relative to linear analogue” value is “comparable”. In addition, the “inhibition … (clinical signs) on co-injection” value in the test on EAE in Lewis rats [1] was “completely prevented”. Besides, in test [4], the “spinal cord demyelination and inflammation on co-immunization with MBP72-85” value is on record as “completely prevented”.

As to “Val^87-His-Phe-Phe-Arg^91-Asn-Ile-Val-Thr-Ala^96-Arg-Thr-Pro^99 [cyclo-(87, 99)[Arg^91,Ala^96]MBP87-99]”, in the test with EAE in Lewis rats [1], the “inhibition of MBP72-85-induced EAE on co-injection” value is given as “strong inhibitor” and the “inhibition … (clinical signs) on co-injection” value is recorded as “completely prevented”.

As to “Gln-Lys-Ser-Gln-Arg-Ser-Gln-Ala^81-GluAsn-Pro-Val [Ala^81MBP72-85]”, the “reversal of agonist effect on human T cell activation and proliferation” value in test [2] was “completely reversed”. Also, in the test with EAE in Lewis rats [1] (co-injection with the inducing cyclic analogue), the “suppression of EAE induced by cyclic analogue on co-injection” value is “completely suppressed”. For the same substance, the “spinal cord demyelination and inflammation on co-immunization with MBP72-85” value in test [4] is “complete absence of inflammation and demyelination”. Besides, in the test on EAE in Lewis rats [3] (Tselios et al 1999), the “prevention of clinical and histopathological manifestations of disease induced by c-MBP72-85” value is on record as “prevented”. For the same substance, the “prevention of the induction of EAE by parent peptide MBP72-85” value in the test on EAE in Lewis rats [3] (background, literature) was “prevented the induction of EAE”.

Consider “QKSQRSQDENPV [MBP72-85, reference compound]”, for which the “effect on human T cell activation and proliferation” value in test [2] was “comparable effect”. Moreover, in the test with EAE in Lewis rats [1] (25 μg peptide), the “complete recovery in all animals” value was not above 18 days and the “peak clinical score, day after the initial injection” value was 13 days. In the test on EAE in Lewis rats [1], the “induction of EAE” value is “induced an acute monophasic disease; also recorded: induce EAE”; the “peak clinical score, day following the initial injection” value is 15 days; the “recovery from EAE” value is recorded as “eventual complete recovery in all animals”. In test [4] (day 15 / peak of disease), the “spinal cord histopathology after immunization with the peptide alone” value was “extensive perivascular and parenchymal inflammation; also recorded: multiple perivascular infiltrates”. Also, the “induction of EAE” value in the test with EAE in Lewis rats [3] (background, literature) was “induce EAE”.
